{"source": "patent US20090176817A1", "about": "“Method of Treatment of Diarrhea-Predominant Irritable Bowel Syndrome in a Subject” (priority 2005, published 2009)", "tested_on": "diarrhea-predominant IBS subjects", "experiment": "Study S241.3.006: weekly diary questions on adequate relief", "assay_type": "in vivo, human", "conditions": "for Number of months a subject was a responder: One month (Abdominal pain/discomfort) / Number of months a subject was a responder: One month (Abnormal bowel habits) / Number of months a subject was a responder: One month (IBS symptoms) / Number of months a subject was a responder: Three months (Abdominal pain/discomfort) / Number of months a subject was a responder: Three months (Abnormal bowel habits) / Number of months a subject was a responder: Three months (IBS symptoms) / Number of months a subject was a responder: Two months (Abdominal pain/discomfort) / Number of months a subject was a responder: Two months (Abnormal bowel habits) / Number of months a subject was a responder: Two months (IBS symptoms) / Number of months a subject was a responder: Zero months (Abdominal pain/discomfort) / Number of months a subject was a responder: Zero months (Abnormal bowel habits) / Number of months a subject was a responder: Zero months (IBS symptoms): monthly LOCF", "experimental": "The study was conducted in 129 study centers in the United States. At total of 2080 subjects consented to participate, and 711 subjects were randomized. A total of 692 subjects were analyzed for efficacy and 701 subjects were analyzed for safety. Diagnosis and main criteria for inclusion were IBS subjects satisfying the Rome I criteria (1992); the diarrhea predominant sub-population of the Rome II criteria; and a minimum abdominal pain/discomfort, stool frequency and consistency determined during the run-in period. Subjects were treated with cilansetron 2 mg tablets given orally TID or matching placebo tablets given orally TID for 12 weeks double-blind treatment.\nThe primary efficacy parameter was the number of months that a subject was a responder for IBS symptoms (abdominal pain, abdominal discomfort, abnormal bowel habits) over the 12-week treatment period. A responder for a month (monthly responder) was defined as a subject who answered the weekly question with “yes” at least twice for that month.\nStudies S24 1.3.OO6, S24 1.3.0 1 1, and S24 1.3.009 used the following efficacy measurements: • The subjects answered the following three questions with “yes” or “no” using a phone diary at the end of each week: • a) During the last week, did you experience adequate relief of your IBS symptoms, such as abdominal pain, abdominal discomfort, abnormal bowel habits? • b) During the last week, did you experience adequate relief of your abdominal pain and/or discomfort? • c) During the last week, did you experience adequate relief of your abnormal bowel habits? • The subjects rated the following symptoms using the phone diary at the end of each day: • abdominal pain/discomfort (five-point scale); • stool consistency (seven-point Bristol Stool Scale); • stool frequency (number of bowel movements each day); • urgency (five-point scale); • straining (yes or no); • feeling of incomplete defecation (yes or no); • bloating or feeling of abdominal distension (five-point scale). • In Studies S241 A006 and S241.3.009, subjects completed the IBS-QOL Survey at Baseline (Day 1) and at the end of treatment. In Study S24 1.3.0 1 1, subjects completed the IBS-QOL Survey at Baseline (Day 1), at the end of the three-month treatment period, and at the end of rerandomized treatment.\nIn all three pivotal efficacy studies, the primary and main secondary efficacy parameters were based on the weekly diary questions on adequate relief and included the following: • 1. Number of months (one month equals four weeks) that a subject was a responder for the weekly diary questions on adequate relief. A responder for a month (monthly responder) was defined as a subject who answered the weekly question with “yes” at least twice for that month. For Studies S241.3.006 and S241.3.011, the primary efficacy parameter was the number of months that a subject was a responder for IBS symptoms during the 12-week treatment period. The two main secondary efficacy parameters were the number of months that a subject was a responder for abdominal pain/discomfort and abnormal bowel habits during the 12-week treatment period. For Study S241.3.009, the number of months that a subject was a responder for the weekly diary questions on adequate relief during Months 1 to 3 (the first 12 weeks) and Months 1 to 6 (24-week) was an additional key secondary efficacy parameter. • 2. Overall responder rate for the weekly diary questions on adequate relief. A responder was defined as a subject who answered the weekly question with “yes” for at least half of the answers available with a minimum of four weeks treatment duration. If a subject had less than four weeks treatment duration, the subject was considered a non-responder. The overall responder rate was the percentage of responders within a treatment group. For Study S241.3.009, the primary efficacy parameter was the overall responder rate for IBS symptoms during the 26-week treatment period. […]", "key": {"[1]": {"conditions": "Duration of IBS: >24 months to ≦48 months, 2 mg TID, observed case, ITT"}, "[2]": {"conditions": "Duration of IBS: >24 months to ≦48 months, three-month treatment period, ITT, 2 mg TID"}, "[3]": {"conditions": "Duration of IBS: >48 months to ≦120 months, 2 mg TID, observed case, ITT"}, "[4]": {"conditions": "Duration of IBS: >48 months to ≦120 months, three-month treatment period, ITT, 2 mg TID"}, "[5]": {"conditions": "Duration of IBS: >120 months, 2 mg TID, observed case, ITT"}, "[6]": {"conditions": "Duration of IBS: >120 months, three-month treatment period, ITT, 2 mg TID"}, "[7]": {"conditions": "Duration of IBS: ≦24 months, 2 mg TID, observed case, ITT"}}}
{"smiles": "Cc1nccn1C[C@H]1CCc2c(c3cccc4c3n2CCC4)C1=O", "note": "[Cilansetron, (R)-(−)-4,5,6,8,9,10-hexahydro-10-[(2-methyl-1H-imidazol-1-yl)methyl]-11H-pyrido-[3,2,1-jk]-carbazol-11-one]", "values": [{"measurement": "Overall responder rate, adequate relief of abnormal bowel habits", "setting": "Baseline severity of IBS: severe, three-month treatment period, observed case, ITT, 2 mg TID", "result": "90 (46) n (%)"}, {"measurement": "Overall responder rate, abdominal pain/discomfort", "setting": "Caucasians", "result": 52, "unit": "%"}, {"measurement": "Number of subjects who were responders during the three-month treatment period: Adequate relief of IBS symptoms", "setting": "[1]", "result": "20 (47) n (%)"}, {"measurement": "Number of subjects who were responders during the three-month treatment period: Adequate relief of abdominal pain/discomfort", "setting": "[1]", "result": "22 (51) n (%)"}, {"measurement": "Number of subjects who were responders during the three-month treatment period: Adequate relief of abnormal bowel habits", "setting": "[1]", "result": "20 (47) n (%)"}, {"measurement": "Number of months a subject was a responder: One month (Abdominal pain/discomfort)", "setting": "[2]", "result": "8 (19) n (%)"}, {"measurement": "Number of months a subject was a responder: One month (Abnormal bowel habits)", "setting": "[2]", "result": "10 (23) n (%)"}, {"measurement": "Number of months a subject was a responder: One month (IBS symptoms)", "setting": "[2]", "result": "12 (28) n (%)"}, {"measurement": "Number of months a subject was a responder: Three months (Abdominal pain/discomfort)", "setting": "[2]", "result": "15 (35) n (%)"}, {"measurement": "Number of months a subject was a responder: Three months (Abnormal bowel habits)", "setting": "[2]", "result": "13 (30) n (%)"}, {"measurement": "Number of months a subject was a responder: Three months (IBS symptoms)", "setting": "[2]", "result": "14 (33) n (%)"}, {"measurement": "Number of months a subject was a responder: Two months (Abdominal pain/discomfort)", "setting": "[2]", "result": "6 (14) n (%)"}, {"measurement": "Number of months a subject was a responder: Two months (Abnormal bowel habits)", "setting": "[2]", "result": "7 (16) n (%)"}, {"measurement": "Number of months a subject was a responder: Two months (IBS symptoms)", "setting": "[2]", "result": "4 (9) n (%)"}, {"measurement": "Number of months a subject was a responder: Zero months (Abdominal pain/discomfort)", "setting": "[2]", "result": "14 (33) n (%)"}, {"measurement": "Number of months a subject was a responder: Zero months (Abnormal bowel habits)", "setting": "[2]", "result": "13 (30) n (%)"}, {"measurement": "Number of months a subject was a responder: Zero months (IBS symptoms)", "setting": "[2]", "result": "13 (30) n (%)"}, {"measurement": "Number of subjects who were responders during the three-month treatment period: Adequate relief of IBS symptoms", "setting": "[3]", "result": "54 (52) n (%)"}, {"measurement": "Number of subjects who were responders during the three-month treatment period: Adequate relief of abdominal pain/discomfort", "setting": "[3]", "result": "58 (56) n (%)"}, {"measurement": "Number of subjects who were responders during the three-month treatment period: Adequate relief of abnormal bowel habits", "setting": "[3]", "result": "54 (52) n (%)"}, {"measurement": "Number of months a subject was a responder: One month (Abdominal pain/discomfort)", "setting": "[4]", "result": "12 (12) n (%)"}, {"measurement": "Number of months a subject was a responder: One month (Abnormal bowel habits)", "setting": "[4]", "result": "12 (12) n (%)"}, {"measurement": "Number of months a subject was a responder: One month (IBS symptoms)", "setting": "[4]", "result": "15 (14) n (%)"}, {"measurement": "Number of months a subject was a responder: Three months (Abdominal pain/discomfort)", "setting": "[4]", "result": "40 (38) n (%)"}, {"measurement": "Number of months a subject was a responder: Three months (Abnormal bowel habits)", "setting": "[4]", "result": "37 (36) n (%)"}, {"measurement": "Number of months a subject was a responder: Three months (IBS symptoms)", "setting": "[4]", "result": "35 (34) n (%)"}, {"measurement": "Number of months a subject was a responder: Two months (Abdominal pain/discomfort)", "setting": "[4]", "result": "18 (17) n (%)"}, {"measurement": "Number of months a subject was a responder: Two months (Abnormal bowel habits)", "setting": "[4]", "result": "19 (18) n (%)"}, {"measurement": "Number of months a subject was a responder: Two months (IBS symptoms)", "setting": "[4]", "result": "19 (18) n (%)"}, {"measurement": "Number of months a subject was a responder: Zero months (Abdominal pain/discomfort)", "setting": "[4]", "result": "34 (33) n (%)"}, {"measurement": "Number of months a subject was a responder: Zero months (Abnormal bowel habits)", "setting": "[4]", "result": "36 (35) n (%)"}, {"measurement": "Number of months a subject was a responder: Zero months (IBS symptoms)", "setting": "[4]", "result": "35 (34) n (%)"}, {"measurement": "Number of subjects who were responders during the three-month treatment period: Adequate relief of IBS symptoms", "setting": "[5]", "result": "69 (47) n (%)"}, {"measurement": "Number of subjects who were responders during the three-month treatment period: Adequate relief of abdominal pain/discomfort", "setting": "[5]", "result": "72 (49) n (%)"}, {"measurement": "Number of subjects who were responders during the three-month treatment period: Adequate relief of abnormal bowel habits", "setting": "[5]", "result": "73 (50) n (%)"}, {"measurement": "Number of months a subject was a responder: One month (Abdominal pain/discomfort)", "setting": "[6]", "result": "15 (10) n (%)"}, {"measurement": "Number of months a subject was a responder: One month (Abnormal bowel habits)", "setting": "[6]", "result": "14 (10) n (%)"}, {"measurement": "Number of months a subject was a responder: One month (IBS symptoms)", "setting": "[6]", "result": "13 (9) n (%)"}, {"measurement": "Number of months a subject was a responder: Three months (Abdominal pain/discomfort)", "setting": "[6]", "result": "59 (40) n (%)"}, {"measurement": "Number of months a subject was a responder: Three months (Abnormal bowel habits)", "setting": "[6]", "result": "57 (39) n (%)"}, {"measurement": "Number of months a subject was a responder: Three months (IBS symptoms)", "setting": "[6]", "result": "51 (35) n (%)"}, {"measurement": "Number of months a subject was a responder: Two months (Abdominal pain/discomfort)", "setting": "[6]", "result": "19 (13) n (%)"}, {"measurement": "Number of months a subject was a responder: Two months (Abnormal bowel habits)", "setting": "[6]", "result": "19 (13) n (%)"}, {"measurement": "Number of months a subject was a responder: Two months (IBS symptoms)", "setting": "[6]", "result": "22 (15) n (%)"}, {"measurement": "Number of months a subject was a responder: Zero months (Abdominal pain/discomfort)", "setting": "[6]", "result": "53 (36) n (%)"}, {"measurement": "Number of months a subject was a responder: Zero months (Abnormal bowel habits)", "setting": "[6]", "result": "56 (38) n (%)"}, {"measurement": "Number of months a subject was a responder: Zero months (IBS symptoms)", "setting": "[6]", "result": "60 (41) n (%)"}, {"measurement": "Number of subjects who were responders during the three-month treatment period: Adequate relief of IBS symptoms", "setting": "[7]", "result": "25 (49) n (%)"}, {"measurement": "Number of subjects who were responders during the three-month treatment period: Adequate relief of abdominal pain/discomfort", "setting": "[7]", "result": "27 (53) n (%)"}]}
